Drawing on patent publication US20260226068A1, “IMIDAZOTRIAZINE IL-17A MODULATORS AND USES THEREOF” (DICE ALPHA, INC., priority 2023, published 2026), this text covers IC50 for 16 compounds.

Each structure is given as a SMILES string. Bounds are passed on as bounds.

One test concerns the target T1, IL-17A/A (Homo sapiens, UniProt Q16552).
T1 construct: purchased Genscript Z03228
T1 sequence (Q16552 24-155): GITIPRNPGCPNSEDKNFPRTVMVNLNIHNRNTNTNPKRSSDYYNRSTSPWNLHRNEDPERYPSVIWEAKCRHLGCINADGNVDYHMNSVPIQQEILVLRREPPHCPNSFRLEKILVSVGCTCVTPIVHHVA
Briefly: IL-17A/A HEK-Blue cell assay (SEAP reporter). Format: cell-based. As to conditions: HEK-Blue IL-17A reporter cells, IL17A/A 5 ng/mL, 20 hours, SEAP read at A630; read-out: HEK-Blue IL17AA (IC50 for IL-17A/A inhibition).

The target of the next test is T2, IL-17A/F (Homo sapiens, UniProt Q16552+Q96PD4).
T2 construct: purchased R&D Systems
T2 sequence (Q16552 24-155): T1 sequence (Q16552 24-155)
T2 sequence (Q96PD4 31-163): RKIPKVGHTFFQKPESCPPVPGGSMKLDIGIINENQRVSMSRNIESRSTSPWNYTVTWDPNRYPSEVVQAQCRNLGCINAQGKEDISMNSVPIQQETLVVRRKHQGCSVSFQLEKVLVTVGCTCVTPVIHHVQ
Kind of test: IL-17A/F HEK-Blue cell assay (SEAP reporter). It is filed as cell-based. To be noted: HEK-Blue IL-17A reporter cells, IL17A/F 5 ng/mL, 20 hours, SEAP read at A630; read-out: HEK-Blue IL17AF (IC50 for IL-17A/F inhibition).

As to `CCn1nccc1C(=O)N[C@H](c1cn2nc(C[C@H]3C[C@@H](C(F)(F)F)CNC3=O)c(CN3CC(C)(F)C3)nc2n1)C1CCC(F)(F)CC1` [Compound 337, N—((S)-(4,4-difluorocyclohexyl)(3-((3-fluoro-3-methylazetidin-1-yl)methyl)-2-(((3R,5R)-2-oxo-5-(trifluoromethyl)piperidin-3-yl)methyl)imidazo[1,2-b][1,2,4]triazin-6-yl)methyl)-1-ethyl-1H-pyrazole-5-carboxamide], the IC50 is under 0.1 µM at IL-17A/A and over 1 µM on IL-17A/F.
In the case of `CCn1nccc1C(=O)N[C@H](c1cn2nc(C[C@H]3C[C@@H](C(F)(F)F)CNC3=O)c(CN3C(C)CC3C)nc2n1)C1CCC(F)(F)CC1` (stereo partly drawn) [Compound 338, N-((1S)-(4,4-difluorocyclohexyl)(3-((2,4-dimethylazetidin-1-yl)methyl)-2-(((3R,5R)-2-oxo-5-(trifluoromethyl)piperidin-3-yl)methyl)imidazo[1,2-b][1,2,4]triazin-6-yl)methyl)-1-ethyl-1H-pyrazole-5-carboxamide], the IC50 at IL-17A/A is under 0.1 µM; on IL-17A/F, over 1 µM.
With `CCn1nccc1C(=O)N[C@H](c1cn2nc(C[C@H]3C[C@@H](C(F)(F)F)CNC3=O)c(CN3CC4(CC4)C3)nc2n1)C1CCC(F)(F)CC1` [Compound 339, N—((S)-(3-((5-azaspiro[2.3]hexan-5-yl)methyl)-2-(((3R,5R)-2-oxo-5-(trifluoromethyl)piperidin-3-yl)methyl)imidazo[1,2-b][1,2,4]triazin-6-yl)(4,4-difluorocyclohexyl)methyl)-1-ethyl-1H-pyrazole-5-carboxamide], the IC50 at IL-17A/A was 0.1 to 1 µM; at IL-17A/F it was over 1 µM.
Consider `CCn1nccc1C(=O)N[C@H](c1cn2nc(C[C@H]3C[C@@H](C(F)(F)F)CNC3=O)c(CN3CC4(C3)CC(F)(F)C4)nc2n1)C1CCC(F)(F)CC1` [Compound 340, N—((S)-(3-((6,6-difluoro-2-azaspiro[3.3]heptan-2-yl)methyl)-2-(((3R,5R)-2-oxo-5-(trifluoromethyl)piperidin-3-yl)methyl)imidazo[1,2-b][1,2,4]triazin-6-yl)(4,4-difluorocyclohexyl)methyl)-1-ethyl-1H-pyrazole-5-carboxamide], for which the IC50 was under 0.1 µM on IL-17A/A and over 1 µM on IL-17A/F.
As to `CCn1nccc1C(=O)N[C@H](c1cn2nc(C[C@H]3C[C@@H](C(F)(F)F)CNC3=O)c(CN3CC4(C3)CC(O)(C(F)(F)F)C4)nc2n1)C1CCC(F)(F)CC1` [Compound 341, N—((S)-(4,4-difluorocyclohexyl)(3-((6-hydroxy-6-(trifluoromethyl)-2-azaspiro[3.3]heptan-2-yl)methyl)-2-(((3R,5R)-2-oxo-5-(trifluoromethyl)piperidin-3-yl)methyl)imidazo[1,2-b][1,2,4]triazin-6-yl)methyl)-1-ethyl-1H-pyrazole-5-carboxamide], the figures for the IC50 at IL-17A/A and on IL-17A/F were under 0.1 µM and over 1 µM, respectively.
The like results for `CCn1nccc1C(=O)N[C@H](c1cn2nc(C[C@H]3C[C@@H](C(F)(F)F)CNC3=O)c(CN3CCC(C)(C)C3)nc2n1)C1CCC(F)(F)CC1` [Compound 342, N—((S)-(4,4-difluorocyclohexyl)(3-((3,3-dimethylpyrrolidin-1-yl)methyl)-2-(((3R,5R)-2-oxo-5-(trifluoromethyl)piperidin-3-yl)methyl)imidazo[1,2-b][1,2,4]triazin-6-yl)methyl)-1-ethyl-1H-pyrazole-5-carboxamide] were, in that order, 0.1 to 1 µM and over 1 µM.
The like results for `CCn1nccc1C(=O)N[C@H](c1cn2nc(C[C@H]3C[C@@H](C(F)(F)F)CNC3=O)c(CN3CCCC3C)nc2n1)C1CCC(F)(F)CC1` (stereo partly drawn) [Compound 343, N-((1S)-(4,4-difluorocyclohexyl)(3-((2-methylpyrrolidin-1-yl)methyl)-2-(((3R,5R)-2-oxo-5-(trifluoromethyl)piperidin-3-yl)methyl)imidazo[1,2-b][1,2,4]triazin-6-yl)methyl)-1-ethyl-1H-pyrazole-5-carboxamide] were, in that order, under 0.1 µM and over 1 µM.
The like results for `CCn1nccc1C(=O)N[C@H](c1cn2nc(C[C@H]3C[C@@H](C(F)(F)F)CNC3=O)c(CN3CCC4(CC4)C3)nc2n1)C1CCC(F)(F)CC1` [Compound 344, N—((S)-(3-((5-azaspiro[2.4]heptan-5-yl)methyl)-2-(((3R,5R)-2-oxo-5-(trifluoromethyl)piperidin-3-yl)methyl)imidazo[1,2-b][1,2,4]triazin-6-yl)(4,4-difluorocyclohexyl)methyl)-1-ethyl-1H-pyrazole-5-carboxamide] were, in that order, 0.1 to 1 µM and over 1 µM.
Regarding `CCn1nccc1C(=O)N[C@H](c1cn2nc(C[C@H]3C[C@@H](C(F)(F)F)CNC3=O)c(CN3CCC(F)(F)CC3)nc2n1)C1CCC(F)(F)CC1` [Compound 345, N—((S)-(4,4-difluorocyclohexyl)(3-((4,4-difluoropiperidin-1-yl)methyl)-2-(((3R,5R)-2-oxo-5-(trifluoromethyl)piperidin-3-yl)methyl)imidazo[1,2-b][1,2,4]triazin-6-yl)methyl)-1-ethyl-1H-pyrazole-5-carboxamide], the IC50 was under 0.1 µM on IL-17A/A and over 1 µM on IL-17A/F.
The like results for `CCn1nccc1C(=O)N[C@H](c1cn2nc(C[C@H]3C[C@@H](C(F)(F)F)CNC3=O)c(CN3CCC4(CC3)CC4)nc2n1)C1CCC(F)(F)CC1` [Compound 346, N—((S)-(3-((6-azaspiro[2.5]octan-6-yl)methyl)-2-(((3R,5R)-2-oxo-5-(trifluoromethyl)piperidin-3-yl)methyl)imidazo[1,2-b][1,2,4]triazin-6-yl)(4,4-difluorocyclohexyl)methyl)-1-ethyl-1H-pyrazole-5-carboxamide] were, in that order, under 0.1 µM and over 1 µM.
The like results for `CCn1nccc1C(=O)N[C@H](c1cn2nc(C[C@H]3C[C@@H](C(F)(F)F)CNC3=O)c(CN3CCCC4(CC4)C3)nc2n1)C1CCC(F)(F)CC1` [Compound 347, N—((S)-(3-((5-azaspiro[2.5]octan-5-yl)methyl)-2-(((3R,5R)-2-oxo-5-(trifluoromethyl)piperidin-3-yl)methyl)imidazo[1,2-b][1,2,4]triazin-6-yl)(4,4-difluorocyclohexyl)methyl)-1-ethyl-1H-pyrazole-5-carboxamide] were, in that order, under 0.1 µM and over 1 µM.
The like results for `CCn1nccc1C(=O)N[C@H](c1cn2nc(C[C@H]3C[C@@H](C(F)(F)F)CNC3=O)c(CN3CC4CC(C3)C4(F)F)nc2n1)C1CCC(F)(F)CC1` [Compound 348, N-((1S)-(3-((6,6-difluoro-3-azabicyclo[3.1.1]heptan-3-yl)methyl)-2-(((3R,5R)-2-oxo-5-(trifluoromethyl)piperidin-3-yl)methyl)imidazo[1,2-b][1,2,4]triazin-6-yl)(4,4-difluorocyclohexyl)methyl)-1-ethyl-1H-pyrazole-5-carboxamide] were, in that order, under 0.1 µM and 0.1 to 1 µM.
Take `CCn1nccc1C(=O)N[C@H](c1cn2nc(C[C@H]3C[C@@H](C(F)(F)F)CNC3=O)c(CN3CCOC(C)C3)nc2n1)C1CCC(F)(F)CC1` (stereo partly drawn) [Compound 349, N-((1S)-(4,4-difluorocyclohexyl)(3-((2-methylmorpholino)methyl)-2-(((3R,5R)-2-oxo-5-(trifluoromethyl)piperidin-3-yl)methyl)imidazo[1,2-b][1,2,4]triazin-6-yl)methyl)-1-ethyl-1H-pyrazole-5-carboxamide]: the IC50 on IL-17A/A is under 0.1 µM; on IL-17A/F, over 1 µM.
`CCn1nccc1C(=O)N[C@H](c1cn2nc(C[C@H]3C[C@@H](C(F)(F)F)CNC3=O)c(CN3CCOC(C)(C)C3)nc2n1)C1CCC(F)(F)CC1` [Compound 351, N—((S)-(4,4-difluorocyclohexyl)(3-((2,2-dimethylmorpholino)methyl)-2-(((3R,5R)-2-oxo-5-(trifluoromethyl)piperidin-3-yl)methyl)imidazo[1,2-b][1,2,4]triazin-6-yl)methyl)-1-ethyl-1H-pyrazole-5-carboxamide]: the results for the IC50 at IL-17A/A and at IL-17A/F were under 0.1 µM and over 1 µM, respectively.
Regarding `CCn1nccc1C(=O)N[C@H](c1cn2nc(C[C@H]3C[C@@H](C(F)(F)F)CNC3=O)c(CN3CCN(CC(F)(F)F)C(=O)C3)nc2n1)C1CCC(F)(F)CC1` [Compound 352, N—((S)-(4,4-difluorocyclohexyl)(3-((3-oxo-4-(2,2,2-trifluoroethyl)piperazin-1-yl)methyl)-2-(((3R,5R)-2-oxo-5-(trifluoromethyl)piperidin-3-yl)methyl)imidazo[1,2-b][1,2,4]triazin-6-yl)methyl)-1-ethyl-1H-pyrazole-5-carboxamide], the values for the IC50 at IL-17A/A and on IL-17A/F were 0.1 to 1 µM and over 1 µM, respectively.
In the case of `CCn1nccc1C(=O)N[C@H](c1cn2nc(C[C@H]3C[C@@H](C(F)(F)F)CNC3=O)c(C3COCCN3)nc2n1)C1CCC(F)(F)CC1` (stereo partly drawn) [Compound 353, N-((1S)-(4,4-difluorocyclohexyl)(3-(morpholin-3-yl)-2-(((3R,5R)-2-oxo-5-(trifluoromethyl)piperidin-3-yl)methyl)imidazo[1,2-b][1,2,4]triazin-6-yl)methyl)-1-ethyl-1H-pyrazole-5-carboxamide], the figures for the IC50 on IL-17A/A and at IL-17A/F were under 0.1 µM and over 1 µM, respectively.
